The results in this text go back to ChEMBL document CHEMBL1121531, “Steroidal alpha-methylene delta-lactones as potential antitumor agents” (J Med Chem, 1980).

Holding throughout (format): cell-based
Data set [1] can be described thus: (§1) Dose that required to inhibit cell growth for cytotoxicity against HEp-2 cells in culture. The following applies: human, HEp-2 cells; read-out: LD50 (the source's name).
Another data set deals with HEp-2. The data set is described as §1. The conditions noted are these: human, hep-2.
Data set [2] is described as follows: Dose that required to inhibit cell growth for cytotoxicity against human nasopharyngeal carcinoma (KB) cells in culture. The following applies: read-out: LD50 (the source's name).

≈ marks a conversion by molar mass, not a printed value.

Regarding `C[C@]12CC[C@H]3[C@@H](CCC4=CC(=O)CC[C@@]43C)[C@@H]1CC[C@@H]2O` [TESTOSTERONE], in data set [1], the CC50 was found to be 0.44 µg/mL (≈ 1.53 µM). This compound also came in with an LD50 with HEp-2 of 0.58 µg/mL. Also, the GI50 in data set [2] is 1.27 µg/mL (≈ 4.4 µM). As for `CC(=O)[C@H]1CC[C@H]2[C@@H]3CC[C@H]4CC(=O)CC[C@]4(C)[C@H]3CC[C@]12C`, in data set [1], the CC50 stood at 0.84 µg/mL (≈ 2.65 µM). `C=C1CC2(C)C3CCC4(C)C(OC(C)=O)CCC4C3CC[C@H]2OC1=O` (some centres undefined): the GI50 in data set [2] stood at 0.72 µg/mL (≈ 2.08 µM). Consider `C=C1CC2(C)C3CCC4(C)C(CCCCCCCC)CCC4C3CC[C@H]2OC1=O` (some centres undefined), for which the GI50 in data set [2] worked out at 0.82 µg/mL (≈ 2.05 µM). On the same count and under the same terms, the figure for `C=C1CC2C3CC[C@H]4CC(O)CCC4(C)C3CCC2(C)OC1=O` (some centres undefined) is 1 µg/mL (≈ 3.14 µM). For `C=C1CC2(CCC3(C)[C@@H](CC[C@H]4[C@@H]5CCC(=O)C5(C)CC[C@@H]43)C2)OC1=O` (some centres undefined), in data set [1], the CC50 amounted to 0.58 µg/mL (≈ 1.63 µM). Turning to `C=C1CC2(C)C3CCC4(C)C(O)CCC4C3CC[C@H]2OC1=O` (some centres undefined), the GI50 in data set [2] worked out at 0.76 µg/mL (≈ 2.5 µM).
